From PMC12598805, “Crystal Structure–Activity Relationship of Some MeO Phenylacrylonitriles: Dual Antimicrobial–Cytotoxic Effects and in Silico Perspectives” (ChemistryOpen, 2025)
Values after ≈ are worked out from the molar mass of the structure shown. Where two headings read alike, the source gives them in different places.

Key:
[1] = test system: human breast carcinoma (MCF‐7) cells; assay: Cytotoxicity, CCK8 cell viability; assay type: cell-based; conditions: for IC50: Homo sapiens, MCF7, read-out: Cytotoxic activity IC50
Text: (§1) We investigated the cytotoxic effects of acrylonitrile derivatives 2(a–c) on human lung carcinoma (A549, CCL‐185) cells purchased from American Culture Collection and human breast carcinoma (MCF‐7) cells purchased from Republic of Turkey Ministry of Agriculture and Forestry Şap Institute, (HUKUK, 00092502), In addition, mouse fibroblast cells (L929, CCL‐1) purchased from American Culture Collection were used to observe the effects of the compounds on healthy cells. In 25 T Flask, A549 cells were grown in dulbecco's modified eagle's medium, MCF‐7, and L929 cells were grown in eagle's minimum essential medium (EMEM), 10% fetal bovine serum and 1% Penicillin‐Streptomycin at 37 °C in a 5% CO2 and 100% humidified incubator. Cell proliferation was checked every day. Cells were taken into the experiment when the cell density reached 70% to 80%. (See Supporting Information for experimental preparation of biological studies).
(§2) The compounds 2a, 2b, and 2c were dissolved in 99.8% Dimethyl sulfoxide (DMSO) respectively, as
(§3) 10 mM main stock. To prepare the doses of acrylonitrile compounds used in the experiment to be
(§4) applied to the cells, five different concentrations of 31.25; 62.5; 125; 250 and 500 μM were prepared
(§5) by diluting the main stock solutions (10 mM) with the medium selected according to the cells. 5-
(§6) Fluorouracil (5-FU) was selected as a positive control in the study. After the 5-FU main stock solution
(§7) was dissolved with DMSO to be 10 mM, the concentrations to be used were diluted with the selected
(§8) media and made ready for the experimental plan. The concentrations used for 5-FU were prepared in
(§9) the same doses used for acrylonitrile derivatives. For the negative control group, groups containing
(§10) only media and no substance were used. Prepared acrylonitrile compounds and 5-FU concentrations
(§11) were added to the wells in three replicates for each dose, and their effects on cell viability at 24 and 48
(§12) Trypan blue solution (Gibco, 1525061) was used to distinguish between living and dead cells in the
(§13) study. Trypan blue passes uncontrollably through the membrane of dead cells that have lost their cell
(§14) membrane integrity and stains the cell blue. Living cells, on the other hand, are not stained because
(§15) Live cell counts were performed using trypan blue using a
(§16) cell counter (Logos Luna II).
(§17) In order to detach the cells adhering to the flasks from the bottom, 500 μL of 0.25% Trypsin-EDTA
(§18) (Gibco, 15400054) solution was added and treated for five minutes.
(§19) detach from the bottom under an inverted microscope (Zeiss Primovert, Germany), medium containing
(§20) 10% FBS was added. After centrifugation at 300 g for 5 minutes and discarding the medium, 1 mL of
(§21) medium was added and the cells were seeded into 96-well culture dishes as 1x10^4 cells in 100 μL per
(§22) Cell Counting Kit 8 (CCK8; Medchem, 146436) was used to determine cell viability. After adding 20 μL
(§23) of CCK8 solution to each well in the dark, 96-well culture dishes were wrapped with aluminum foil and
(§24) kept in a CO2 incubator at 37 °C for 2 hr. Then, it was automatically read with a microplate reader
(§25) (Chromate) at 450 and 630 nm wavelengths. The following formula was used to determine cell
(§26) % Viability = (Sample Well−Blank) (Negative Control−Blank)×100 (1)
(§27) The half-maximal inhibitory concentration (IC50) was calculated as 50% cell death causing dose
(§28) compared to the control group. All data are given as the mean percent fraction of control ± SEM.
(§29) Statistical analysis was done by one-way analysis of variance (ANOVA), followed by Tukey’s multiple
(§30) comparison tests. IBM SPSS Statistics 22 was used to utilize statistical analysis. […]

[2] = test system: human lung carcinoma (A549, CCL‐185) cells; assay: Cytotoxicity, CCK8 cell viability; assay type: cell-based; conditions: for IC50: Homo sapiens, read-out: Cytotoxic activity IC50
Text: as §1, §2, §3, §4, §5, §6, §7, §8, §9, §10, §11, §12, §13, §14, §15, §16, §17, §18, §19, §20, §21, §22, §23, §24, §25, §26, §27, §28, §29, §30

[3] = test system: mouse fibroblast cells (L929, CCL‐1); assay: Cytotoxicity on healthy cells, CCK8 cell viability; assay type: cell-based
Text: as §1, §2, §3, §4, §5, §6, §7, §8, §9, §10, §11, §12, §13, §14, §15, §16, §17, §18, §19, §20, §21, §22, §23, §24, §25, §26, §27, §28, §29, §30

[4] = Cytotoxicity on healthy cells, CCK8 cell viability; assay type: cell-based, mouse; conditions: mouse, L929 mouse fibroblast cells, read-out: Cytotoxic activity IC50
Text: as §1, §2, §3, §4, §5, §6, §7, §8, §9, §10, §11, §12, §13, §14, §15, §16, §17, §18, §19, §20, §21, §22, §23, §24, §25, §26, §27, §28, §29, §30

[5] = test system: Candida albicans (ATCC-10231); assay: Agar diffusion, zone of inhibition; assay type: cell-based; conditions: C.albicans, antibiotics at 5 mg mL^−1
Text: (§31) The antibacterial and antifungal activities were reported utilizing the method described by the Clinical & Laboratory Standards Institute.^[ [31], [32] ^] Agar diffusion method was used to determine the antimicrobial activity of the synthesized substances. The media used were mueller hinton agar (MHA) for bacteria and sabouraud‐dextrose agar (SDA) for fungi (Merck), as recommended by the manufacturer.
(§32) The synthesized compounds were initially investigated for their antimicrobial activity to elucidate the potential therapeutic utility against various pathogenic microbes using the agar plate diffusion method. The compounds were tested at a concentration of 50 mg mL^−1, and the antibiotics (ampicillin, kanamycin, and amphotericin B) were used at 5 mg mL^−1. […] K.pneumoniae and B.cereus were resistant to ampicillin, while they were susceptible to kanamycin with inhibition values of 30 and 26 mm, respectively. No antimicrobial activity of the compounds was observed against E.faecalis, S.typhimurium, K.pneumoniae, and for the fungus compared to Amphotericin B (20 mm). […]
(§33) ATCC: American Type Culture Collection; NRRL: Northern Regional Research Laboratory The compounds 2(a-c) obtained could only be completely solubilised with dimethyl sulphoxide (DMSO) and the highest possible stock solutions of 50 mg.mL-1 were prepared. To these wells 50 μl of the previously prepared substances were transferred using sterile micropipette tips. For comparison, Ampicillin and kanamycin antibiotics for bacteria and Amphotericin B antibiotics for fungus were used as positive controls and DMSO was used as negative control. The prepared petri plates were kept at +4°C for about 1 hour and then the bacterial cultures were incubated at 37°C for 18-24 hours and mould cultures at 27-30°C for 48-72 hours. The zones formed were measured millimetrically with callipers. The experiments were performed with three repetitions. […]

[6] = test system: Candida albicans (ATCC-10231); assay: MBC/MFC by sub-culture from wells without growth; assay type: cell-based; conditions: ATCC10231, C.albicans
Procedure: (§34) ATCC: American Type Culture Collection; NRRL: Northern Regional Research Laboratory The compounds 2(a-c) obtained could only be completely solubilised with dimethyl sulphoxide (DMSO) and the highest possible stock solutions of 50 mg.mL-1 were prepared. […]
(§35) 3.1. Determination of Minimum Inhibition Concentration (MIC)
(§36) The minimum inhibition concentration (MIC) values of the compounds 2(a-c) against the test bacteria used in the study were determined according to the broth microdilution method.[1-2] MHB or SDB was used as test medium and bacterial and yeast suspensions were prepared at 0.5 Mc Farland concentration for each test bacteria. Double layer serial dilutions were prepared in "U" type 96-well microtiter plates. Medium+bacteria suspensions containing only medium in the first row, medium+bacteria in the second row and the final concentrations of the synthesised substances in the other rows between 25 mg.mL-1 and […] were added to the wells with a final volume of 200
(§37) μL. Ampicillin, Kanamycin and Amphotericin B standard antibiotics were used as positive controls.
(§38) Bacteria were incubated at 37±0.1 °C and C. albicans at 30±0.1 °C for 24-48 hours and the lowest concentration without growth was determined as MIC. Tests were performed in two parallel runs and mean values were given as a result. […]

[7] = test system: Bacillus cereus (ATCC-10876); assay: Agar diffusion, zone of inhibition; assay type: cell-based; conditions: B.cereus, antibiotics at 5 mg mL^−1
Text: as §31
The synthesized compounds were initially investigated for their antimicrobial activity to elucidate the potential therapeutic utility against various pathogenic microbes using the agar plate diffusion method. The compounds were tested at a concentration of 50 mg mL^−1, and the antibiotics (ampicillin, kanamycin, and amphotericin B) were used at 5 mg mL^−1. […] K.pneumoniae and B.cereus were resistant to ampicillin, while they were susceptible to kanamycin with inhibition values of 30 and 26 mm, respectively. No antimicrobial activity of the compounds was observed against E.faecalis, S.typhimurium, K.pneumoniae, and for the fungus compared to Amphotericin B (20 mm).
(§39) Bacillus cereus (ATCC-10876) […]
as §33

[8] = test system: Klebsiella pneumoniae (ATCC-70063); assay: Agar diffusion, zone of inhibition; assay type: cell-based; conditions: K.pneumoniae, antibiotics at 5 mg mL^−1
Text: as §31, §32
Klebsiella pneumoniae (ATCC-70063)
as §33

[9] = test system: Bacillus cereus (ATCC-10876); assay: MBC by sub-culture from wells without growth; assay type: cell-based; conditions: B.cereus
Procedure: as §39, §34, §35, §36, §37
Bacteria were incubated at 37±0.1 °C and C. albicans at 30±0.1 °C for 24-48 hours and the lowest concentration without growth was determined as MIC. Tests were performed in two parallel runs and mean values were given as a result. In order to estimate “the minimum bactericidal/fungicidal concentrations (MBC/MFC) of the synthesised acrylonitrile derivatives “needed to indicate […] killing of the original inoculum,” 10 μl was taken from the wells with no observed growth and further sub-cultured onto their agar media (MHA and SDA for bacterial and fungal strains, respectively).[3] […]

[10] = test system: Bacillus cereus (ATCC-10876); assay: Broth microdilution MIC; assay type: cell-based; conditions: B.cereus
Procedure: as §39, §34, §35, §36, §37, §38

With `O=c1[nH]cc(F)c(=O)[nH]1` [5‐FU, 5‐Fluorouracil, reference compound] the IC50 ([1]; MCF‐7, 24 h) was 250 µM, the IC50 ([1]; MCF‐7, 48 h) was 102 µM and the “decrease in cell viability” value ([1]; MCF‐7, 24 h, 31.25 μM) was 23%. The “decrease in cell viability” value ([1]; MCF‐7, 24 h, 62.5 μM) was 23%, the “decrease in cell viability” value ([1]; MCF‐7, 24 h, 125 μM) was 34% and the “decrease in cell viability” value ([1]; MCF‐7, 24 h, 250 μM) was 50%. The “decrease in cell viability” value ([1]; MCF‐7, 24 h, 500 μM) was 76%, the “decrease in cell viability” value ([1]; MCF‐7, 48 h, 31.25 μM) was 46% and the “decrease in cell viability” value ([1]; MCF‐7, 48 h, 62.5 μM) was 47%. The “decrease in cell viability” value ([1]; MCF‐7, 48 h, 125 μM) was 52%, the “decrease in cell viability” value ([1]; MCF‐7, 48 h, 250 μM) was 74% and the “decrease in cell viability” value ([1]; MCF‐7, 48 h, 500 μM) was 95%. For the same molecule, the “suppressive effect on cell proliferation / viability” value ([2]; A549, 24 h, 31.25 to 500 μM) was “did not show any suppressive effect”, the “decrease in cell viability” value ([2]; A549, 48 h, 250 μM) was 17% and the “decrease in cell viability” value ([2]; A549, 48 h, 500 μM) was 77%. The IC50 ([2]; A549, 24 h) was > 500 µM, the IC50 ([2]; A549, 48 h) was 386 µM and the “decrease in cell viability” value ([3]; L929, 24 h, 31.25 μM) was 45%. The “decrease in cell viability” value ([3]; L929, 24 h, 62.5 μM) was 45%, the “decrease in cell viability” value ([3]; L929, 24 h, 125 μM) was 51% and the “decrease in cell viability” value ([3]; L929, 24 h, 250 μM) was 62%. The “decrease in cell viability” value ([3]; L929, 24 h, 500 μM) was 93%, the “decrease in cell viability” value ([3]; L929, 48 h, 31.25 μM) was 50% and the “decrease in cell viability” value ([3]; L929, 48 h, 62.5 μM) was 64%. For the same molecule, the “decrease in cell viability” value ([3]; L929, 48 h, 125 μM) was 68%, the “decrease in cell viability” value ([3]; L929, 48 h, 250 μM) was 80% and the “decrease in cell viability” value ([3]; L929, 48 h, 500 μM) was 93%. The IC50 at 24 h ([4]; L929, 24 h) was 109 µM and the IC50 at 48 h ([4]; L929, 48 h) was 33 µM.

For `C[C@@H]1[C@H](O)[C@@H](C)/C=C/C=C/C=C/C=C/C=C/C=C/C=C/[C@H](O[C@@H]2O[C@H](C)[C@@H](O)[C@H](N)[C@@H]2O)C[C@@H]2O[C@](O)(C[C@@H](O)C[C@@H](O)[C@H](O)CC[C@@H](O)C[C@@H](O)CC(=O)O[C@H]1C)C[C@H](O)[C@H]2C(=O)O` [Amphotericin B, reference compound], the zone of inhibition [5] was 20 ± 0.71 mm, the zone of inhibition at 5 mg/mL ([5]; Candida albicans, ATCC10231) was 20 mm and the MBC [6] was 250 µg/mL (≈ 271 µM).

For `NC[C@H]1O[C@H](O[C@H]2[C@H](O)[C@@H](O[C@H]3O[C@H](CO)[C@@H](O)[C@H](N)[C@H]3O)[C@H](N)C[C@@H]2N)[C@H](O)[C@@H](O)[C@@H]1O` [Kanamycin, reference compound], the zone of inhibition [7] was 26 ± 1.41 mm, the zone of inhibition ([7]; listed as kanamycin) was 26 mm and the zone of inhibition [8] was 30 ± 0 mm. For the same molecule, the zone of inhibition ([8]; listed as kanamycin) was 30 mm, the MBC [9] was 62.5 µg/mL (≈ 129 µM) and the MIC [10] was 31.25 µg/mL (≈ 64.5 µM).
